PubChem BioAssay AID651670 (Sanford-Burnham Center for Chemical Genomics, 2012)
Calls of active or inactive are those of the source.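 Rule for the calls: active = IC50 at or below 20 µM; inactive = the rest.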

Target: Fatty acid synthase (Homo sapiens) (UniProt P49327)
Assay: inhibition of human FAS-TE enzyme activity – biochemical, endpoint fluorescence intensity, analogs, SAR follow-up (AID 651670)
Details: recombinant FAS-TE, OMFH fluorogenic substrate

Fatty acid synthase (Homo sapiens), sequence (P49327 whole entry, looked up): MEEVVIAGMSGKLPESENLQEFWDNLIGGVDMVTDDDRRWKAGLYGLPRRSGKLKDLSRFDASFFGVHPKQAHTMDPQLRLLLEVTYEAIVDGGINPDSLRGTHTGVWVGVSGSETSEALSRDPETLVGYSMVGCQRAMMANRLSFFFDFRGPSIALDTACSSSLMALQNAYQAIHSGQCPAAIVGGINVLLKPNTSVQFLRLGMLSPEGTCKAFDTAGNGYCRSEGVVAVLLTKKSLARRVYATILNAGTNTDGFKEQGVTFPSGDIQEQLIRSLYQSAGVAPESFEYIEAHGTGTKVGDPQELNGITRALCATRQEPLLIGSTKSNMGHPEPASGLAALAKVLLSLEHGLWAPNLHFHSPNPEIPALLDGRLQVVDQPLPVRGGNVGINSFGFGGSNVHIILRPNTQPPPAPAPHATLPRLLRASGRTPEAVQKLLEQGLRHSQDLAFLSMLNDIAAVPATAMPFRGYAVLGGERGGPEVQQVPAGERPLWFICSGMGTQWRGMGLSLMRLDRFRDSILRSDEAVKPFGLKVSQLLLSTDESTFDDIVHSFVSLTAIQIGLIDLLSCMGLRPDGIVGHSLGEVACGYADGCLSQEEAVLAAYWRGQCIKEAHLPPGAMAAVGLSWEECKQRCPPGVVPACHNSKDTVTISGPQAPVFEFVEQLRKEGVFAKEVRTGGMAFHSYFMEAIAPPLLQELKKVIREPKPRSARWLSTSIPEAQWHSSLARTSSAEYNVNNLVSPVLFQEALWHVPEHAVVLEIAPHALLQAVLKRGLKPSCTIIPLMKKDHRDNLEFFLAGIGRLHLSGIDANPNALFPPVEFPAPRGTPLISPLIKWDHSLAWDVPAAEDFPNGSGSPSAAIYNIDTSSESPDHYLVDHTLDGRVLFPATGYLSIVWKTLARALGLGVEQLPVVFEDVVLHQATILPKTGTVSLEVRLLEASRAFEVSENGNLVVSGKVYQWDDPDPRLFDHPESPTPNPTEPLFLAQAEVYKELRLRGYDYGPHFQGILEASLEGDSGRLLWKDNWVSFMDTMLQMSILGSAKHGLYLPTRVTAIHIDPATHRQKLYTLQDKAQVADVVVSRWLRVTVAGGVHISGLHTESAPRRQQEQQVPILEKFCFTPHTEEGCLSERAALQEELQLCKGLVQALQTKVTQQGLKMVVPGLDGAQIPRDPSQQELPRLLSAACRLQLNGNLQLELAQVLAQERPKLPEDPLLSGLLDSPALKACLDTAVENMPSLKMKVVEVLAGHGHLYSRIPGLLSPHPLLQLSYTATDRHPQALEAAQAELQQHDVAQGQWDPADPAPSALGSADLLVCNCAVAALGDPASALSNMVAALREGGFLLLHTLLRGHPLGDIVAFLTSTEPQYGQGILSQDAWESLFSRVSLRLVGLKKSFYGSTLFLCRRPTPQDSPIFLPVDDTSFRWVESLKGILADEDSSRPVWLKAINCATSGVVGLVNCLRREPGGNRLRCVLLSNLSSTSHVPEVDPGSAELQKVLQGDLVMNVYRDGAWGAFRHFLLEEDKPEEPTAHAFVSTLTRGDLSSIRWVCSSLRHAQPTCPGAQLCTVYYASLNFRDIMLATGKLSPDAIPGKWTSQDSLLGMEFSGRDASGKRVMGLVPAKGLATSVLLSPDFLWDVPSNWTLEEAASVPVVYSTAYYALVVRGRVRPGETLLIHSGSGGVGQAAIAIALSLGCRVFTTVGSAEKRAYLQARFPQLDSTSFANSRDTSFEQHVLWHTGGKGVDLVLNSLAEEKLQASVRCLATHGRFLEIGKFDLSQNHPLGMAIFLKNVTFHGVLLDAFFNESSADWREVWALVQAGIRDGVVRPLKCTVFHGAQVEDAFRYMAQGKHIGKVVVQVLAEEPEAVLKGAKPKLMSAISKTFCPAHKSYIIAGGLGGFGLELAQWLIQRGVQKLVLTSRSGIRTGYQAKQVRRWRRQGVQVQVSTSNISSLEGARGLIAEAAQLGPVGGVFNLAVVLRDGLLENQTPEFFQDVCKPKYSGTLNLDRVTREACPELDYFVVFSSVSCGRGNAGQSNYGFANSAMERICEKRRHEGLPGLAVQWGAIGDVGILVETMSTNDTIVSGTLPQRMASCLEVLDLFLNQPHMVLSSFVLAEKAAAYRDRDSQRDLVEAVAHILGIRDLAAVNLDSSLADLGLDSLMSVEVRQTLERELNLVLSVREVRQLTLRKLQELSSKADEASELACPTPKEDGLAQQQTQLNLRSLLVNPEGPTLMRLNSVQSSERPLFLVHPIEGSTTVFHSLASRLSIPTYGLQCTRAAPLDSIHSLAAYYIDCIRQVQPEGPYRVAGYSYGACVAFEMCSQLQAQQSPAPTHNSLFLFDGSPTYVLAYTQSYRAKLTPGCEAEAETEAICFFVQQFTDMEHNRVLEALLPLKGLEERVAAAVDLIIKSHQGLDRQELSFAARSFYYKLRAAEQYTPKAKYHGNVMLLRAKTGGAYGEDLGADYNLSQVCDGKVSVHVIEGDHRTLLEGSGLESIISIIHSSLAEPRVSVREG

IC50 | Compound
inactive | CCn1c(SCC(=O)Nc2ncc(C(F)(F)F)cc2Cl)nnc1-c1ccncc1
1.96 µM | COc1ccc(-c2nnc(SCC(=O)Nc3ncc(C(F)(F)F)cc3Cl)n2C)cc1
> 80 µM (inactive) | Cn1c(SCC(=O)Nc2ccccc2)nnc1-c1ccc(Cl)cc1
8.27 µM | Cn1c(SCC(=O)Nc2ncc(C(F)(F)F)cc2Cl)nnc1-c1ccc(F)cc1
inactive | CCCn1c(SCC(=O)Nc2ncc(C(F)(F)F)cc2Cl)nnc1-c1ccncc1
> 80 µM (inactive) | Cc1nnc(SCC(=O)Nc2ncc(C(F)(F)F)cc2Cl)n1-c1ccccc1
0.67 µM | CCCCn1c(SCC(=O)Nc2ncc(C(F)(F)F)cc2Cl)nnc1-c1ccc(OC)cc1
> 80 µM (inactive) | Cn1c(SCC(=O)Nc2cccc(Cl)c2)nnc1-c1ccc(Cl)cc1
inactive | Cn1c(Cc2ccccc2)nnc1SCC(=O)Nc1ncc(C(F)(F)F)cc1Cl
> 80 µM (inactive) | Cc1ccccc1NC(=O)CSc1nnc(-c2ccc(Cl)cc2)n1C

The remaining lines, values behind:

Compound | IC50
O=C(Nc1nc(-c2ccc(S(=O)(=O)N3CCOCC3)cc2)cs1)c1ccco1 | inactive
CCc1ccc(CN(C)C(=O)Cc2ccc(S(=O)(=O)N3CCCC3)s2)cc1 | 12.9 µM
CC(=O)Nc1nc(-c2ccc(S(=O)(=O)N3CCOCC3)cc2)cs1 | 15.3 µM
CN(Cc1cccc(F)c1)C(=O)Cc1ccc(S(=O)(=O)N2CCOCC2)s1 | > 80 µM (inactive)
O=S(=O)(c1ccc(-c2csc(N3CCCC3)n2)cc1)N1CCOCC1 | 0.948 µM
Cc1ccc(NC(=O)Cc2nc(-c3ccc(S(=O)(=O)N4CCOCC4)cc3)cs2)cc1 | > 80 µM (inactive)
O=C(Nc1nc(-c2ccc(S(=O)(=O)N3CCOCC3)cc2)cs1)c1cccs1 | inactive
COc1ccc(CN(C)C(=O)Cc2ccc(S(=O)(=O)N3CCOCC3)s2)cc1OC | > 80 µM (inactive)
O=S(=O)(c1ccc(-c2csc(Cc3ccccc3)n2)cc1)N1CCOCC1 | 0.664 µM
